Test results: paper PMC9786748, “Carvacrol and HP-β-Cyclodextrin Complexes: Extensive Characterization and Potential Cytotoxic Effect in Human Colorectal Carcinoma Cells” (Pharmaceutics, 2022)
Values after ≈ are worked out from the molar mass of the structure shown. Where two headings read alike, the source gives them in different places.

What was measured:
[1] = Complexation of carvacrol with HP-β-CD by ultrasound (US); type: physicochemical
Protocol: (§1) Once the concentrations of carvacrol in each sample were quantified, the values obtained were plotted against the concentrations of CDs. For the calculation of KC, the slope and intercept of the phase diagrams related to the solubility studies were determined, according to Equation (1):(1) KC=Slope/S0 (1−Slope) where S0 is the solubility of carvacrol at 25 °C, in the absence of cyclodextrins, and Slope is the gradient of the phase solubility diagrams.
The solubility method was developed from that used by Higuchi and Connors, with minor modifications. We added an excess of carvacrol to an aqueous solution that increased the concentration to 100 mM HP-β-CD, in 100 mL of water, at 25 °C. […] The aqueous solutions were filtered through 0.45 µm nylon to remove the excess free carvacrol. To determine the amount of carvacrol complexed, samples were diluted in ethanol-water at 80% and analyzed via gas chromatography–mass spectrometry (CG–MS).

[2] = Solubility of carvacrol in the absence of cyclodextrins (S0) at different pH; type: physicochemical; conditions: for S0 (solubility of carvacrol) / solubility at 60 min: absence of CDs; for solubility at 60 min: aqueous buffer, thermodynamic from solid
Protocol: (§2) The solubility studies of carvacrol, in the presence of CDs, were performed according to the method described by Higuchi and Connors in 1965, with slight modifications. […] For an evaluation of the pH effect in the process of complex formation, these solutions were prepared in different buffer solutions: 100 mM sodium acetate buffer, pH 3.5 and 5.5; 100 mM sodium phosphate buffer, pH 6.5 and 7.0; and 100 mM sodium borate buffer, pH 8.5. To each solution, a saturating amount of the carvacrol under analysis was added, then the solutions were kept in an ultrasonic bath for 60 min in the dark at 25 °C until equilibrium was reached. After this point, the solutions were filtered through 0.45 μm nylon to remove the excess carvacrol.
(§3) To quantify the amount of monoterpene in each filtrate, the complexes were disrupted by adding 80% ethanol. Each solution was then introduced into a gas chromatograph, coupled to a mass spectrometer (Shimadzu QP 2010) equipped with an Slb-5 ms (30 m × 0.25 mm × […]) capillary column. The operating conditions are as follows: the starting temperature is 70 °C, the temperature is increased at a rate of 4 °C/min until it reaches 160 °C and is then increased to 280 °C at a rate of 30 °C/min, then held there for 6 min; the inlet temperature is 250 °C, the injection type is a 1:20 split mode, with helium used as the carrier gas. Component identification is based on the relative elution times and comparison of the mass spectra of each peak against a database containing the system.
as §1

[3] = Phase solubility study of carvacrol with HP-β-CDs (Higuchi and Connors); type: physicochemical
Protocol: as §2, §3, §1
(§4) To determine the complexation efficiency (CE) of carvacrol, Equation (2) was used:(2) CE=[carvacrol−CDs]/[CD]=S0× KC.
(§5) The molar ratio (MR) of carvacrol:CDs was calculated using the CE values and Equation (3):(3) carvacrol:CDs=1:(1+1/CE).

[4] = end of the 7-day period, 300 µM, DMEM with HCT-116 cells, 37 °C
Protocol: Carvacrol release from the free and complexed carvacrol was monitored by chromatography (see Section 2.2). Briefly, 1 × 10^5 HCT-116 cells were grown for up to 7 days in DMEM, supplemented with 300 µM free or complexed HP-β-CD-carvacrol, at 37 °C. At each appropriate time point (days 1–7), 1 mL aliquots were withdrawn and replaced with an equal volume of fresh medium. All determinations were made in triplicate.

[5] = Phase solubility study of carvacrol with β-CDs (Higuchi and Connors); type: physicochemical; conditions: for CE (complexation efficiency) / KC: β-CDs
Protocol: as §2, §3, §1, §4, §5

[6] = system: MRC-5 lung fibroblast cells; experiment: Cell viability assay (tetrazolium), MRC-5; type: cell-based; conditions: Homo sapiens, MRC5; MRC-5, 72 h incubation
Protocol: (§6) Colorectal adenocarcinoma (HCT-116) and non-tumoral fetal lung fibroblast (MRC5) cell lines were obtained from the American Type Culture Collection (ATCC, Rockville, MD, USA). The cell lines were cultivated in high glucose Dulbecco’s modified Eagle’s medium (DMEM) and Eagle’s minimum essential medium (EMEM), respectively, containing 10% heat-inactivated fetal bovine serum (FBS), 2 mM glutamine, 50 U/mL penicillin and 50 µg/mL streptomycin (Sigma-Aldrich Chemical Co., St. Louis, MO, USA) in an atmosphere of 5% CO2 and 95% humidified air at 37 °C. The subculture was complete when 90% confluence was reached. Fibroblasts for up to 15 doublings were used for the experiments.
(§7) Exponentially growing cells were plated in triplicate in flat-bottomed 96-well plates (Nunc, Roskilde, Denmark) at 1500 cells/well for HCT-116 and 4000 cells/well for MRC5. The following day, compounds were added in serial dilutions, from 50 µM to 1000 µM. Control wells contained compound-free medium plus 0.1% dimethyl sulfoxide (DMSO). The plates were incubated for 3 days in a humidified 5% CO2 incubator and cell viability was determined. […] The formazan crystals were dissolved in 200 µL DMSO for 30 min and the absorbance was read at 570 nm in a microtiter plate reader. The results were calculated as:(7) cell viability (%)=average O.D of wells/average O.D of control wells.

[7] = Complexation of carvacrol with HP-β-CD by microwave irradiation (MWI); type: physicochemical; conditions: for increase in solubility of carvacrol / KC: HP-β-CDs
Protocol: as §1
The calculation of the complexation constant (KC) between carvacrol and HP-β-CDs was carried out by the addition of different concentrations of HP-β-CDs to 100 mL of water, maintaining a 1:1 molar ratio. Aqueous HP-β-CD solutions (0–100 mM) were irradiated with microwaves for 30 s at 10 s intervals until the dissolution reached 70 °C. The carvacrol was then added to each sample and irradiated again for 30 s at the same intervals (10 s) until the samples reached 70 °C. Subsequently, the samples were shaken and held for 12 h in scintillation vials, sealed with parafilm, and protected from light.
Then, we repeated the above procedure by irradiating the sample again until it reached 70 °C. The solution was then filtered through 0.45 μm nylon to remove the excess carvacrol. Finally, the concentration of monoterpene was determined via CG-MS.

[8] = system: HCT-116 colorectal cancer cells; experiment: Cell viability assay (tetrazolium), HCT-116; type: cell-based; conditions: Homo sapiens; HCT-116, 72 h incubation
Protocol: as §6, §7

[9] = Phase solubility study of carvacrol with α-CDs (Higuchi and Connors); type: physicochemical
Protocol: as §2, §3, §1, §4, §5

[10] = weak acid; cited from earlier work
[11] = design: method as in PMID 25298799; conditions: with RAMEB; cited from earlier work
[12] = design: method as in PMID 25298799; conditions: with CRYSMEB; cited from earlier work
[13] = design: method as in PMID 25298799; conditions: with HP-β-CDs; cited from earlier work

Question: Which results are given for Cc1ccc(C(C)C)cc1O [carvacrol]?
Answer: increase in solubility of carvacrol ([1]; HP-β-CDs, US method): 132.9 times; KC ([1]; HP-β-CDs, US, pH 7.0): 6909 ± 161 L/mol; KC ([1]; HP-β-CDs, ultrasound (US), 24 h): 8129 ± 194 L/mol; S0 ([1]; achieved by US): 0.56 mmol/L; S0 (solubility of carvacrol) ([2]; pH 3.5, 25 °C): 2760 ± 200 µM; S0 (solubility of carvacrol) ([2]; pH 6.5, 25 °C): 920 ± 110 µM; decrease of solubility at pH 7.0 relative to acidic pH ([2]; pH 7.0 vs acidic pH (S0 = 2.76)): 80%; S0 (solubility of carvacrol) ([2]; pH 8.5, 25 °C): 760 ± 130 µM; solubility at 60 min ([2]; sodium acetate buffer, pH 3.5, 25 °C): 2760 µM (≈ 415 µg/mL); solubility at 60 min ([2]; sodium acetate buffer, pH 5.5, 25 °C): 1650 ± 160 µM (≈ 248 µg/mL); solubility at 60 min ([2]; sodium borate buffer, pH 8.5, 25 °C): 760 µM (≈ 114 µg/mL); solubility at 60 min ([2]; sodium phosphate buffer, pH 6.5, 25 °C): 920 µM (≈ 138 µg/mL); solubility at 60 min ([2]; sodium phosphate buffer, pH 7.0, 25 °C): 560 ± 30 µM (≈ 84.1 µg/mL); CE (complexation efficiency) ([3]; pH 3.5): 0.546; KC ([3]; pH 3.5): 198 ± 19 L/mol; CE (complexation efficiency) ([3]; pH 5.5): 0.540; KC ([3]; pH 5.5): 327 ± 37 L/mol; CE (complexation efficiency) ([3]; pH 6.5): 1.399; KC ([3]; pH 6.5): 1521 ± 73 L/mol; CE (complexation efficiency) ([3]; pH 7.0): 2.824; KC ([3]; pH 7.0): 5042 ± 176 L/mol; CE (complexation efficiency) ([3]; pH 8.5): 0.739; KC ([3]; pH 8.5): 973 ± 94 L/mol; soluble drug (carvacrol release) [4]: 4.37 ± 1.61%; KC with β-CDs relative to KC with α-CD ([5]; compared with α-CD (400 ± 56)): 8 times higher; CE (complexation efficiency) ([5]; pH 3.5): 0.386; KC ([5]; pH 3.5): 140 ± 21 L/mol; CE (complexation efficiency) ([5]; pH 5.5): 1.234; KC ([5]; pH 5.5): 748 ± 19 L/mol; CE (complexation efficiency) ([5]; pH 6.5): 0.797; KC ([5]; pH 6.5): 866 ± 180 L/mol; CE (complexation efficiency) ([5]; pH 7.0): 1.941; KC ([5]; pH 7.0): 3466 ± 115 L/mol; CE (complexation efficiency) ([5]; pH 8.5): 0.441; KC ([5]; pH 8.5): 580 ± 45 L/mol; IC50 [6]: 398 µM; increase in solubility of carvacrol ([7]; MWI, 24 h): 151.8 times; increase in solubility of carvacrol ([7]; MWI, 48 h): 155.6 times; KC ([7]; MWI, at 24 h, pH 7.0): 8129 ± 194 L/mol; KC ([7]; MWI, at 48 h, pH 7.0): 6811 ± 107 L/mol; KC ([7]; microwave irradiation (MWI)): 6909 ± 161 L/mol; S0 ([7]; in the case of MWI): 0.35 mmol/L; IC50 [8]: 385 µM; CE (complexation efficiency) ([9]; pH 3.5): 0.298; KC ([9]; pH 3.5): 108 ± 16 L/mol; CE (complexation efficiency) ([9]; pH 5.5): 0.317; KC ([9]; pH 5.5): 192 ± 24 L/mol; CE (complexation efficiency) ([9]; pH 6.5): 0.220; KC ([9]; pH 6.5): 239 ± 42 L/mol; CE (complexation efficiency) ([9]; pH 7.0): 0.224; KC ([9]; pH 7.0): 400 ± 56 L/mol; CE (complexation efficiency) ([9]; pH 8.5): 0.216; KC ([9]; pH 8.5): 284 ± 37 L/mol; pKa [10]: 10.38

Question: What does the source list for O=C(O)/C=C/c1ccc(O)cc1 [p-coumaric acid]?
Answer: CE (complexation efficiency) [11]: 2.57; CE (complexation efficiency) [12]: 1.89; CE (complexation efficiency) [13]: 2.30
